Here are results for three molecules from ChEMBL document CHEMBL1134138, “Phytoestrogens from the roots of Polygonum cuspidatum (Polygonaceae): structure-requirement of hydroxyanthraquinones for estrogenic activity” (Bioorg Med Chem Lett, 2001).

A word on the IC50: it is the point on the concentration scale where inhibition reaches its midpoint. Lower therefore signals higher potency. One may read the Ki as the equilibrium dissociation constant of an inhibitor or competing ligand from its target.

For assay [1], the target named is T1, Estrogen receptor beta (Homo sapiens, UniProt Q92731).
Description: (§1) Inhibition of binding of 17 beta-estradiol to human Estrogen receptor beta
Assay [2] deals with T1, Estrogen receptor beta. This is another data set of the same source.
Description: as §1
Assay [3] has as its target T2, Estrogen receptor (Homo sapiens, UniProt P03372).
T2 sequence (P03372 whole entry): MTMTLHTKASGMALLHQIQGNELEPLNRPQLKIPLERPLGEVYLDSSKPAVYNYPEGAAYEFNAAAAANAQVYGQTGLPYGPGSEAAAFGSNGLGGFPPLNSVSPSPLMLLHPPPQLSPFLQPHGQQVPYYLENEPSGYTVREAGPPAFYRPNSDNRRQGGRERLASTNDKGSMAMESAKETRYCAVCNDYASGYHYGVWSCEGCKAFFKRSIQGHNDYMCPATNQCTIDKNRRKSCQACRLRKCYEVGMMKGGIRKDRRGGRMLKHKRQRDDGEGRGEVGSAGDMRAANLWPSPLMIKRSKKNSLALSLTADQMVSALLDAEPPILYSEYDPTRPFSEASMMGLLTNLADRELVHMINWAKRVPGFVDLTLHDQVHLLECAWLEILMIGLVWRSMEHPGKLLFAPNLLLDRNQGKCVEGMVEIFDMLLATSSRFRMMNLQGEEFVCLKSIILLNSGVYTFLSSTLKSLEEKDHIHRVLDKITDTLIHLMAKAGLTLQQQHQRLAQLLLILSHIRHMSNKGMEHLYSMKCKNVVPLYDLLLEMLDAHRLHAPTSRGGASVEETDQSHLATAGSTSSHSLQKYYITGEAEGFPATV
Description: (§2) Inhibition of binding of 17 beta-estradiol to human Estrogen receptor alpha

In assay [4] the target is T2, Estrogen receptor. This is another data set of the same source.
Description: as §2

T1 sequence (Q92731 whole entry): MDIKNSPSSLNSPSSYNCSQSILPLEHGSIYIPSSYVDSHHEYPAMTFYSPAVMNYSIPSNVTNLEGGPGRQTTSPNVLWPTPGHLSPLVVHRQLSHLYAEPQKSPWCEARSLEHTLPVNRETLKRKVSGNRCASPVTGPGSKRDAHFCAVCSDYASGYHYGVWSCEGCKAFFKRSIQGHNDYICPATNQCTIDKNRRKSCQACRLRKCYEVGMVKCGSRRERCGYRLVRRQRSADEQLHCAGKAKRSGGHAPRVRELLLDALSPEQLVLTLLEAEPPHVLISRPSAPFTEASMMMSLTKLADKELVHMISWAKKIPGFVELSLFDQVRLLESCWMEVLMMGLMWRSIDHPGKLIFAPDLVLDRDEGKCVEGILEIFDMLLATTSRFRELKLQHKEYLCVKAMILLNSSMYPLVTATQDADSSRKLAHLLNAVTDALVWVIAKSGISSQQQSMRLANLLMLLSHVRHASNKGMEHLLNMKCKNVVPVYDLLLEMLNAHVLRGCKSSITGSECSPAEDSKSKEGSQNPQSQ

`Cc1cc(O)c2c(c1)C(=O)c1cc(O)cc(O[C@@H]3O[C@H](CO)[C@@H](O)[C@H](O)[C@H]3O)c1C2=O` [EMODIN 8-O-BETA-D-GLUCOPYRANOSIDE]: the values for the IC50 in assay [1] and in assay [3] were 62 µM and 20 µM, respectively. Moreover, the Ki in assay [2] turned out to be 18 µM; in assay [4], 5.7 µM.
The matching figures for `O=C1c2ccc(O)cc2C(=O)c2ccc(O)cc21`: 2.4 µM, 1.1 µM, 0.69 µM and 0.31 µM.
As for `Cc1cc(O)c2c(c1)C(=O)c1cc(O)cc(O)c1C2=O` [EMODIN], the IC50 in assay [1] was 5.2 µM. The affinity in assay [2], expressed as Ki, was 1.5 µM.
